In ChEMBL document CHEMBL4627407, “Identification of a Potent Oridonin Analogue for Treatment of Triple-Negative Breast Cancer” (J Med Chem, 2020):
The source made the active and inactive calls. The calls are words filed in the database; no cut-off is given here.

What was measured:
[1] = tested on: HCC1806; assay: Induction of cell cycle arrest in human HCC1806 cells assessed as increase in accumulation at G2/M phase after 48 hrs by propidium iodide staining based FACScan flow cytometry; assay type: functional
[2] = tested on: HCC1806; assay: Induction of cell cycle arrest in human HCC1806 cells assessed as accumulation at G2/M phase at 200 nM after 48 hrs by propidium iodide staining based FACScan flow cytometry (reference value: 10.38%); assay type: functional
[3] = tested on: HCC1806; assay: Induction of cell cycle arrest in human HCC1806 cells assessed as accumulation at G1 phase at 200 nM after 48 hrs by propidium iodide staining based FACScan flow cytometry (reference value: 70.74%); assay type: functional
[4] = tested on: HCC1806; assay: Induction of cell cycle arrest in human HCC1806 cells assessed as accumulation at S phase at 100 nM after 48 hrs by propidium iodide staining based FACScan flow cytometry (reference value: 18.89%); assay type: functional
[5] = tested on: NCI/ADR-RES; assay: Potency index, ratio of oridonin IC50 to compound IC50 for antiproliferative activity against human MCF7/ADR cells after 72 hrs by MTT assay; assay type: functional
[6] = tested on: HCC1806; assay: Induction of cell cycle arrest in human HCC1806 cells assessed as accumulation at G2/M phase at 100 nM after 48 hrs by propidium iodide staining based FACScan flow cytometry (reference value: 10.38%); assay type: functional
[7] = tested on: HCC1806; assay: Induction of cell cycle arrest in human HCC1806 cells assessed as accumulation at G1 phase at 100 nM after 48 hrs by propidium iodide staining based FACScan flow cytometry (reference value: 70.74%); assay type: functional
[8] = tested on: HCC1806; assay: Induction of cell cycle arrest in human HCC1806 cells assessed as accumulation at S phase at 50 nM after 48 hrs by propidium iodide staining based FACScan flow cytometry (reference value: 18.89%); assay type: functional
[9] = tested on: HCC1806; assay: Induction of cell cycle arrest in human HCC1806 cells assessed as accumulation at G2/M phase at 50 nM after 48 hrs by propidium iodide staining based FACScan flow cytometry (reference value: 10.38%); assay type: functional
[10] = tested on: NCI/ADR-RES; assay: Antiproliferative activity against human MCF7/ADR cells after 72 hrs by MTT assay; assay type: functional, cell-based
[11] = tested on: MDA-MB-453; assay: Antiproliferative activity against human MDA-MB-453 cells after 72 hrs by MTT assay; assay type: functional, cell-based; conditions: MDA-MB-453, 72 h
[12] = tested on: HCC1806; assay: Induction of apoptosis in human HCC1806 cells assessed as viable cells at 50 uM after 48 hrs by Annexin V-FITC/propidium iodide double staining based flow cytometry (reference value: 95.7%); assay type: functional; conditions: HCC1806, 48 h, read-out: Activity
[13] = tested on: HCC1806; assay: Antimigratory activity against human HCC1806 cells measured up to 48 hrs by phase contrast microscopic based scratch wound healing assay; assay type: functional, cell-based
[14] = tested on: DU-4475; assay: Antiproliferative activity against human DU4475 cells after 72 hrs by MTT assay; assay type: functional, cell-based; conditions: DU-4475, 72 h
[15] = tested on: MDA-MB-231; assay: Antiproliferative activity against human MDA-MB-231 cells after 72 hrs by MTT assay; assay type: functional, cell-based; conditions: MDA-MB-231, 72 h
[16] = tested on: HCC1806; assay: Induction of cell cycle arrest in human HCC1806 cells assessed as downregulation of cyclin B1 expression by western blot analysis; assay type: functional, cell-based
[17] = tested on: HCC1806; assay: Induction of apoptosis in human HCC1806 cells assessed as late apoptotic cells at 50 uM after 48 hrs by Annexin V-FITC/propidium iodide double staining based flow cytometry (reference value: 0.81%); assay type: functional
[18] = tested on: HCC1806; assay: Induction of apoptosis in human HCC1806 cells assessed as viable cells at 100 uM after 48 hrs by Annexin V-FITC/propidium iodide double staining based flow cytometry (reference value: 95.7%); assay type: functional; conditions: HCC1806, 48 h, read-out: Activity
[19] = tested on: HCC1806; assay: Induction of apoptosis in human HCC1806 cells assessed as early apoptotic cells at 200 uM after 48 hrs by Annexin V-FITC/propidium iodide double staining based flow cytometry (reference value: 2.16%); assay type: functional
[20] = tested on: HCC1806; assay: Induction of apoptosis in human HCC1806 cells assessed as late apoptotic cells at 200 uM after 48 hrs by Annexin V-FITC/propidium iodide double staining based flow cytometry (reference value: 0.81%); assay type: functional
[21] = tested on: HCC1806; assay: Induction of apoptosis in human HCC1806 cells assessed as necrotic cells at 200 uM after 48 hrs by Annexin V-FITC/propidium iodide double staining based flow cytometry (reference value: 1.32%); assay type: functional
[22] = tested on: HCC1806; assay: Induction of apoptosis in human HCC1806 cells assessed as increase in Bax expression at 50 to 200 nM after 48 hrs by Western blot analysis; assay type: functional, cell-based
[23] = tested on: HCC1806; assay: Induction of apoptosis in human HCC1806 cells assessed as increase in Bad expression at 50 to 200 nM after 48 hrs by Western blot analysis; assay type: functional, cell-based
[24] = tested on: HCC1806; assay: Induction of apoptosis in human HCC1806 cells assessed as decrease in Bcl2 expression at >= 50 nM after 48 hrs by Western blot analysis; assay type: functional, cell-based
[25] = tested on: HCC1806; assay: Induction of cell death in human HCC1806 cells at 200 nM incubated for 72 hrs in presence of caspase inhibitor z-VAD by MTT assay; assay type: functional, cell-based
[26] = tested on: HCC1806; assay: Antimigratory activity against human HCC1806 cells assessed as reduction in MMP9 expression at 50 to 200 nM after 48 hrs by Western blot analysis; assay type: functional, cell-based
[27] = tested on: HCC1806; assay: Antimigratory activity in human HCC1806 cells assessed as reduction in integrin beta1 level after 48 hrs by Western blot analysis; assay type: functional, cell-based
[28] = tested on: HCC1806; assay: Antitumor activity against human HCC1806 cells harboring luciferase gene xenografted in ICR mouse assessed as shrunken tumor tissue at 12.5 to 25 mg/kg, iv administered once daily for 21 consecutive days and measured once every week; assay type: functional, organism-based
[29] = tested on: HCC1806; assay: Antitumor activity against human HCC1806 cells xenografted in iv dosed ICR mouse assessed as reduction in tumor volume administered once per day for 23 consecutive days and measured every 2 days; assay type: functional, organism-based
[30] = tested on: HCC1806; assay: Antitumor activity against human HCC1806 cells in ICR mouse assessed as tumor shrinkage at 12.5 to 25 mg/kg, iv administered once per day for 23 consecutive days by Ki67 staining-based immunohistochemical analysis; assay type: functional, organism-based
[31] = tested on: HCC1806; assay: Antitumor activity against human HCC1806 cells in ICR mouse assessed as tumor shrinkage at 12.5 to 25 mg/kg, iv administered once per day for 23 consecutive days by TUNEL based immunohistochemical analysis; assay type: functional, organism-based
[32] = tested on: HCC1806; assay: Antitumor activity against human HCC1806 cells in ICR mouse assessed as increase in apoptosis in tumor at 12.5 to 25 mg/kg, iv administered once per day for 23 consecutive days by TUNEL based immunohistochemical analysis; assay type: functional, organism-based
[33] = Toxicity in ICR mouse assessed as induction of morphological changes in liver at 25 mg/kg, iv administered once per day for 23 consecutive days; assay type: organism-based; conditions: in vivo
[34] = Toxicity in ICR mouse assessed as induction of morphological changes in spleen at 25 mg/kg, iv administered once per day for 23 consecutive days; assay type: organism-based; conditions: in vivo
[35] = Toxicity in ICR mouse assessed as induction of morphological changes in lung at 25 mg/kg, iv administered once per day for 23 consecutive days; assay type: organism-based; conditions: in vivo
[36] = Toxicity in ICR mouse assessed as induction of morphological changes in heart at 25 mg/kg, iv administered once per day for 23 consecutive days; assay type: organism-based; conditions: in vivo

With `C=C1C(=O)[C@@]23C(=O)[C@@H]4OC[C@]5(C=CCC(C)(C)[C@@H]45)[C@@H]2CC[C@@H]1[C@H]3OC(=O)/C=C/c1ccncc1` the Activity [1] was “Dose-dependent effect”, the Activity [2] was 24.28% and the Activity [3] was 54.97%. For the same compound, the Activity [4] was 19.13%, the “Ratio IC50” value [5] was 20 and the Activity [6] was 20.26%. For the same compound, the Activity [7] was 60.61%, the Activity [8] was 18.24% and the Activity [9] was 15.94%. For the same compound, the IC50 [10] was 1.38 µM, the IC50 [11] was 0.33 µM and the viability at 50 µM [12] was 82.2%. For the same compound, the Activity [13] was “Dose-dependent effect”, the IC50 [14] was 0.21 µM and the IC50 [15] was 0.63 µM. The Activity [16] was “Dose-dependent effect”, the Activity [17] was 2.43% and the viability at 100 µM [18] was 69%. For the same compound, the Activity [19] was 22.49%, the Activity [20] was 22.79% and the Activity [21] was 4.32%. For the same compound, the Activity [22] was “Active”, the Activity [23] was “Active” and the Activity [24] was “Active”. The Activity [25] was “inactive”, the Activity [26] was “Active” and the Activity [27] was “Dose-dependent effect”. For the same compound, the Activity [28] was “Active”, the Activity [29] was “Dose-dependent effect” and the Activity [30] was “Active”. The Activity [31] was “Active”, the Activity [32] was “Active” and the Activity [33] was “Non-Toxic”. The Activity [34] was “Non-Toxic”, the Activity [35] was “Non-Toxic” and the Activity [36] was “Non-Toxic”.
